The source of these data is the Biogen ADME set (Fang et al. 2023).

For this series the following is noted: for aqueous solubility: pH 6.8.

Molecules are shown by their SMILES. Converted amounts (≈) assume the structure as drawn.

One may read the aqueous solubility as how much of the substance goes into solution per volume. Read a low aqueous solubility as a poorly soluble substance.

For `CCN1CCC(Nc2nc(C)cc(C)c2C#N)CC1`, the MDR1-MDCK efflux ratio came out at 1.24; the intrinsic clearance, human liver microsomes was found to be 6.73 mL/min/kg; the intrinsic clearance, rat liver microsomes was 2490 mL/min/kg; the aqueous solubility is 43.4 µg/mL (≈ 168 µM).

As for `CN(C)c1cc(CNc2ccc(C#N)cn2)ccn1`, the MDR1-MDCK efflux ratio came out at 0.695; the intrinsic clearance, human liver microsomes was 10.4 mL/min/kg; the intrinsic clearance, rat liver microsomes came to 94.5 mL/min/kg; the aqueous solubility came out at 46 µg/mL (≈ 182 µM).

For the compound `COCc1ccccc1CNc1ccc2cc(C#N)ccc2n1`, the MDR1-MDCK efflux ratio was found to be 0.442; the intrinsic clearance, human liver microsomes is 73.8 mL/min/kg; the intrinsic clearance, rat liver microsomes was 429 mL/min/kg; the aqueous solubility worked out at 2.61 µg/mL (≈ 8.6 µM).

Compound `Brc1cnc2ccccc2c1` gave an aqueous solubility of 0.925 µg/mL (≈ 4.45 µM).

`O=S(=O)(c1cccc2c(O)nccc12)N1CCCNCC1`: the MDR1-MDCK efflux ratio was 8.23; the fraction unbound, human plasma was 0.708; the fraction unbound, rat plasma amounted to 0.979; the intrinsic clearance, human liver microsomes is at most 4.74 mL/min/kg. For the same compound, the intrinsic clearance, rat liver microsomes was 191 mL/min/kg.

In the case of `O=S(=O)(Nc1cccc(-c2nc3ccccc3[nH]2)c1)c1ccc(Cl)cc1`, the MDR1-MDCK efflux ratio was 10.7; the intrinsic clearance, human liver microsomes was found to be 20 mL/min/kg; the intrinsic clearance, rat liver microsomes was 2940 mL/min/kg; the aqueous solubility was 4.89 µg/mL (≈ 12.7 µM).

As to `Cc1noc(COc2cccnc2C)n1`, the MDR1-MDCK efflux ratio was determined as 0.706; the intrinsic clearance, human liver microsomes is at most 4.74 mL/min/kg; the intrinsic clearance, rat liver microsomes came to 23.6 mL/min/kg.

As for `Nc1nc(-c2ccccc2)c(C(=O)Nc2ccc(Cl)c(Cl)c2)s1`, the MDR1-MDCK efflux ratio came out at 0.643 and the aqueous solubility is 0.5 µg/mL (≈ 1.37 µM).

In the case of `O=C(CN1CCCN(c2ccc(C(F)(F)F)cn2)CC1)Nc1ccccc1`, the MDR1-MDCK efflux ratio stood at 0.748; the intrinsic clearance, human liver microsomes came to 112 mL/min/kg; the intrinsic clearance, rat liver microsomes amounted to 807 mL/min/kg; the aqueous solubility came out at 1.7 µg/mL (≈ 4.49 µM).

For `Cc1nc2cc(-c3nccn3C)nn2c(NCc2cccnc2)c1C`, the MDR1-MDCK efflux ratio was found to be 28.5; the intrinsic clearance, human liver microsomes worked out at 14.7 mL/min/kg; the intrinsic clearance, rat liver microsomes was determined as 379 mL/min/kg; the aqueous solubility came out at 55.7 µg/mL (≈ 167 µM).

Turning to `CC(C)Cc1nn(C)c(=O)c2c(SCCCO)n(Cc3cccc4ccccc34)cc12`, the MDR1-MDCK efflux ratio was found to be 1.82; the intrinsic clearance, human liver microsomes was found to be 273 mL/min/kg; the intrinsic clearance, rat liver microsomes worked out at 2040 mL/min/kg.

Consider `CN(CCN1CCCCC1)c1cncc(C(N)=O)n1`, for which the MDR1-MDCK efflux ratio stood at 4.41; the intrinsic clearance, human liver microsomes was at most 4.74 mL/min/kg; the intrinsic clearance, rat liver microsomes is 95.2 mL/min/kg.

Consider `CCc1nc(CN2C(=O)COc3ccc(F)cc32)cs1`, for which the MDR1-MDCK efflux ratio was determined as 0.688; the intrinsic clearance, human liver microsomes stood at 65.1 mL/min/kg; the intrinsic clearance, rat liver microsomes turned out to be 1250 mL/min/kg; the aqueous solubility was found to be 20.9 µg/mL (≈ 71.5 µM).

Regarding `Cc1ccc(-c2nc(CN3CCOCC3)n(Cc3ccc(F)cc3)n2)o1`, the MDR1-MDCK efflux ratio was found to be 4.11; the intrinsic clearance, human liver microsomes was found to be 98.3 mL/min/kg; the intrinsic clearance, rat liver microsomes was 1400 mL/min/kg; the aqueous solubility amounted to 28.9 µg/mL (≈ 81.2 µM).

For `NC1CCCC(C(=O)Nc2cccc(N3CCNC3=O)c2)C1` (stereo unspecified), the MDR1-MDCK efflux ratio was 1.33; the fraction unbound, human plasma came out at 0.58; the intrinsic clearance, human liver microsomes is at most 4.74 mL/min/kg.

As to `Cn1cc(C(=O)NCCc2c[nH]c3ccccc23)c(-c2cccnc2)n1`, the MDR1-MDCK efflux ratio came to 29; the intrinsic clearance, human liver microsomes turned out to be 36.2 mL/min/kg; the intrinsic clearance, rat liver microsomes was determined as 415 mL/min/kg; the aqueous solubility was 56.2 µg/mL (≈ 163 µM).

In the case of `CCn1ncc(CN2CCC(c3nc(N(C)C)ncc3-c3ccc(OC)cc3)CC2)c1C`, the MDR1-MDCK efflux ratio stood at 15.6; the intrinsic clearance, human liver microsomes turned out to be 227 mL/min/kg; the intrinsic clearance, rat liver microsomes was 831 mL/min/kg; the aqueous solubility came to 52.6 µg/mL (≈ 121 µM).

For the compound `O=C(Cn1nc2n(c1=O)-c1ccccc1C1=NCCN12)N1CCc2ccccc21`, the MDR1-MDCK efflux ratio turned out to be 22.4 and the aqueous solubility amounted to 5.79 µg/mL (≈ 15 µM).

On to `Cc1nc(C)c2c(C)c(C(=O)N(C)CCN3CCCC3)sc2n1`, for which the MDR1-MDCK efflux ratio stood at 12.6; the intrinsic clearance, human liver microsomes was at most 4.74 mL/min/kg; the intrinsic clearance, rat liver microsomes came out at 77.8 mL/min/kg; the aqueous solubility stood at 60.9 µg/mL (≈ 183 µM).

`N#C/C(=C\c1ccc(O)c(O)c1)C(=O)NCc1ccccc1`: the aqueous solubility was 42.5 µg/mL (≈ 145 µM).

In the case of `Cn1cc(CN2CCN(c3ccccc3O)CC2)c(-c2ccncc2)n1`, the MDR1-MDCK efflux ratio turned out to be 2.69; the intrinsic clearance, human liver microsomes worked out at 27.3 mL/min/kg; the intrinsic clearance, rat liver microsomes is 374 mL/min/kg; the aqueous solubility turned out to be 33.2 µg/mL (≈ 95 µM).

In turn, `CC(C)(C)c1noc(COc2ccccc2C#N)n1` came in with an aqueous solubility of 40.8 µg/mL (≈ 159 µM).

With `Cc1ccc(S(=O)(=O)N2CCCc3ccc(NS(=O)(=O)c4ccc(F)cc4C)cc32)cc1`, the intrinsic clearance, human liver microsomes is 186 mL/min/kg and the intrinsic clearance, rat liver microsomes was 2420 mL/min/kg.

In turn, `COc1ccc(CCCNc2nnc(C)o2)cc1` showed an intrinsic clearance, human liver microsomes of at most 4.74 mL/min/kg; an intrinsic clearance, rat liver microsomes of 151 mL/min/kg; an aqueous solubility of 25.4 µg/mL (≈ 103 µM).

With `O=c1c(-n2ccnn2)c[nH]n1-c1cc(N2CCOCC2)ncn1`, the MDR1-MDCK efflux ratio is 1.76; the intrinsic clearance, human liver microsomes was at most 4.74 mL/min/kg; the intrinsic clearance, rat liver microsomes came to 45.8 mL/min/kg; the aqueous solubility worked out at 30.7 µg/mL (≈ 97.7 µM).

On to `CN1CCN(c2ccc(NC(=O)c3ccc(S(=O)(=O)N4CCCc5ccccc54)cc3)cc2)CC1`, for which the MDR1-MDCK efflux ratio stood at 8.78; the intrinsic clearance, human liver microsomes amounted to 526 mL/min/kg; the intrinsic clearance, rat liver microsomes worked out at 727 mL/min/kg; the aqueous solubility is 10.1 µg/mL (≈ 20.6 µM).

As for `COc1ccc(CN2CC(c3ccncc3)C2)cc1Cn1cccn1`, the MDR1-MDCK efflux ratio worked out at 6.36; the intrinsic clearance, human liver microsomes was found to be 10.8 mL/min/kg; the intrinsic clearance, rat liver microsomes worked out at 397 mL/min/kg.

For the compound `O=C(CSc1nccn1C1CC1)Nc1c(Cl)cc(Cl)cc1C(=O)O`, the MDR1-MDCK efflux ratio is 8.29; the intrinsic clearance, human liver microsomes worked out at 41.6 mL/min/kg; the intrinsic clearance, rat liver microsomes was found to be 204 mL/min/kg; the aqueous solubility was 2.43 µg/mL (≈ 6.29 µM).

Consider `CC(C)NC(=O)COc1cccc(-c2nc(Nc3ccc4[nH]ncc4c3)c3ccccc3n2)c1`, for which the MDR1-MDCK efflux ratio amounted to 20; the fraction unbound, human plasma worked out at 0.00041; the fraction unbound, rat plasma was 0.00313; the intrinsic clearance, human liver microsomes is 42.7 mL/min/kg. The compound also returned an intrinsic clearance, rat liver microsomes of 1560 mL/min/kg.

Regarding `C=CC(=O)Nc1cccc(Oc2nc(Nc3ccc(N4CCN(C)CC4)cc3)nc3ccsc23)c1`, the MDR1-MDCK efflux ratio came to 85.5; the fraction unbound, human plasma was 0.00892; the fraction unbound, rat plasma worked out at 0.00491; the intrinsic clearance, human liver microsomes amounted to 9.79 mL/min/kg. The compound further displayed an intrinsic clearance, rat liver microsomes of 210 mL/min/kg.

`CC1(C)CN(CC(=O)NCC#N)c2cccc(Cl)c21`: the MDR1-MDCK efflux ratio stood at 0.597; the intrinsic clearance, human liver microsomes is 21.2 mL/min/kg; the intrinsic clearance, rat liver microsomes stood at 444 mL/min/kg; the aqueous solubility was 28.5 µg/mL (≈ 103 µM).

Turning to `C[C@H]1CC[C@H](n2c3cnccc3c3cnc(Nc4ccc5c(n4)CCN(C(=O)CO)C5)nc32)CC1`, the MDR1-MDCK efflux ratio is 4.93; the intrinsic clearance, human liver microsomes was 133 mL/min/kg; the intrinsic clearance, rat liver microsomes turned out to be 349 mL/min/kg.

As for `O=c1c2c(C(F)(F)F)cccc2ncn1CCc1ncc[nH]1`, the MDR1-MDCK efflux ratio worked out at 15.6; the intrinsic clearance, human liver microsomes was 10.7 mL/min/kg; the intrinsic clearance, rat liver microsomes worked out at 257 mL/min/kg.

As for `O=C(Nc1cccnc1)c1ccccc1Cc1ccccc1`, the MDR1-MDCK efflux ratio came out at 0.612; the intrinsic clearance, human liver microsomes turned out to be 33.9 mL/min/kg; the intrinsic clearance, rat liver microsomes worked out at 461 mL/min/kg; the aqueous solubility amounted to 70.5 µg/mL (≈ 245 µM).

As to `C[C@H]1CN(C2COC2)CCN1c1ccc(Nc2cc(-c3ccnc(N4CCn5c(cc6c5CC(C)(C)C6)C4=O)c3CO)cn(C)c2=O)nc1`, the MDR1-MDCK efflux ratio was 23.1; the fraction unbound, human plasma was determined as 0.162; the intrinsic clearance, human liver microsomes was 14.8 mL/min/kg; the intrinsic clearance, rat liver microsomes is at most 10.7 mL/min/kg. Also, the aqueous solubility was 46 µg/mL (≈ 69.3 µM).

In the case of `O=C(Nc1ccn(CC(F)F)n1)NC1CCN(C2CCCC2)CC1`, the MDR1-MDCK efflux ratio turned out to be 34.7; the intrinsic clearance, human liver microsomes is at most 4.74 mL/min/kg; the intrinsic clearance, rat liver microsomes is at most 10.7 mL/min/kg.

As for `CCN1CCN(S(=O)(=O)c2c[nH]c(C(C)C)n2)c2ccccc21`, the MDR1-MDCK efflux ratio came to 20.2; the intrinsic clearance, human liver microsomes was determined as 258 mL/min/kg; the intrinsic clearance, rat liver microsomes was 248 mL/min/kg.

For `Cc1nc2ncccn2c1C(=O)N(CC#Cc1ccccc1)C1CCCC1`, the MDR1-MDCK efflux ratio came out at 1.94; the intrinsic clearance, human liver microsomes turned out to be 63.7 mL/min/kg; the intrinsic clearance, rat liver microsomes was found to be 4650 mL/min/kg; the aqueous solubility came out at 42.9 µg/mL (≈ 120 µM).

Turning to `Cc1ccc(OCc2noc(-c3ccsc3)n2)cn1`, the MDR1-MDCK efflux ratio is 0.524; the intrinsic clearance, human liver microsomes worked out at 56.1 mL/min/kg; the intrinsic clearance, rat liver microsomes was found to be 204 mL/min/kg; the aqueous solubility was found to be 52.7 µg/mL (≈ 193 µM).

For `O=S(=O)(N1CCOCC1)N1CCN(Cc2ccccc2F)CC1`, the MDR1-MDCK efflux ratio came to 0.958; the intrinsic clearance, human liver microsomes worked out at 21 mL/min/kg; the intrinsic clearance, rat liver microsomes is 676 mL/min/kg; the aqueous solubility was determined as 36 µg/mL (≈ 105 µM).

As to `COc1ccc2nc(C)nc(NCc3ncc(C)o3)c2c1`, the MDR1-MDCK efflux ratio was found to be 1.39; the intrinsic clearance, human liver microsomes worked out at 23.5 mL/min/kg; the intrinsic clearance, rat liver microsomes amounted to 296 mL/min/kg.

In turn, `COc1cc(Nc2ncc(F)c(Nc3ccc4c(n3)NC(=O)C(C)(C)O4)n2)cc(OC)c1OC` came in with an intrinsic clearance, human liver microsomes of 133 mL/min/kg and an intrinsic clearance, rat liver microsomes of 122 mL/min/kg.

Consider `CN1CCN(CCOc2ccccc2N)CC1`, for which the MDR1-MDCK efflux ratio is 0.548; the intrinsic clearance, human liver microsomes was 8.03 mL/min/kg; the intrinsic clearance, rat liver microsomes was found to be 130 mL/min/kg; the aqueous solubility worked out at 38.1 µg/mL (≈ 162 µM).

As for `Cn1cnc2ncn(Cc3nc(CCc4ccc(Cl)cc4)no3)c(=O)c21`, the MDR1-MDCK efflux ratio is 15.7; the intrinsic clearance, human liver microsomes turned out to be 18 mL/min/kg; the intrinsic clearance, rat liver microsomes amounted to 214 mL/min/kg.
